SMILES strings stand for the structures. Entries after “also recorded” stand apart in the source; their conditions may differ.

Results on two molecules are retold here after US20220304945A1, “METHODS OF TREATING METABOLIC SYNDROME RELATED CONDITIONS USING RETINOIC ACID RECEPTOR AGONISTS” (Cornell University, priority 2014, published 2022).

Common to all, as to type: in vivo, mouse
The test system of test [1] is RARβ2 mRNA. The test is described as follows: Semi-quantitative PCR of pancreas, LRAT −/− vitamin A deficient mice. The note with it: treated 8 weeks. On the procedure:
FIG. 10. Gene expression of RARβ2 in pancreatic tissue from LRAT −/− vitamin A sufficient mice (VAS, normal control diet), LRAT −/− vitamin A deficient (VAD) mice, and LRAT −/− vitamin A deficient (VAD) mice treated with AC261066 for 8 weeks.
(§1) Semi-Quantitate PCR. Total RNA was extracted from mouse tissues using TRIzol reagent (Life technologies) and (1 μg) was used to synthesize cDNA. cDNA synthesis was performed at 42° C. for 1 h in a final volume of 20 μl using qScript (Quanta, MD). Semi-quantitative PCR were performed Taq DNA polymerase (Invitrogen, CA). Three step PCR was run as follows: 94° C. for 30 s, 58-64° C. for 45 s for primer annealing and 72° C. for 1 min for primer extension. The number of cycles for each primer pair for amplification in the linear range was determined experimentally. PCR products were resolved on 2% agarose gels and visualized by staining with ehtidium bromide. Primers for gene expression used were as follows: […]

Test [2] relates to HF-fed C57/BL6 mice. The test is described as follows: Renal lipid accumulation: H and E and oil red O staining of kidney, HF-fed mice. The note with it: HF diet mice 4 months; vs HF-vehicle. From the text: (§2) Mice, diet, and drug treatment. WT male C57/BL6 male mice were maintained on either a standard laboratory chow-fed diet (CFD) with 13% kcal fat, (diet #5053, Lab Diet, Inc, St. Louis, Mo.) or a high fat, western style diet (HFD) with 60% kcals from fat, (diet #58126, Lab Diet, Inc., St. Louis, Mo.) for 4 months. One month after the start of the high fat diet treatment, the high fat diet group was further split into 2 groups for 3 months: i) high fat diet and the drinking water containing 1% DMSO; ii) high fat diet and the drinking water containing 1.5 mg/100 ml AC261066, a specific RARβ agonist. Then mice were sacrificed by cervical dislocation. Blood and various tissue samples were harvested.
Hematoxylin and Eosin Staining. At sacrifice, fresh mouse liver samples were fixed in 4% formaldehyde solution for 24 hr and embedded in paraffin blocks. Kidney paraffin sections were cut 5 microns thick and mounted on glass slides and stained with hematoxylin and eosin (H and E) using standard protocols.
Combined oil red O and Immunofluorescence staining. Fresh mouse kidney samples were embedded in optimal cutting temperature (OCT) medium and immediately frozen to −70 centigrade. Cryosections were then fixed in 4% formaldehyde for 1 hr at room temp. Slides were then rinsed three times in deionized water (dH2O) for 30 s, followed by treatment with 0.5% Triton X-100 in PBS for 5 min. Sections were then washed three times with PBS for 5 min. Samples were with incubated 2% bovine serum albumin (BSA) for 30 min at room temperature to block for unspecific antibody binding. Following blocking, sections were washed three times in PBS and incubated with mouse monoclonal antibody against α-SMA (1:500) (Dako, Inc) for 24 h at 4° C. After 24 h sections were washed three times in PB and incubated with Alexa-Flour-488 anti-mouse secondary anti-body (1:500) (Invitrogen, Inc) for 30 min at room temperature. Sections were then washed three times in PBS and incubated with working strength oil-red O solution for 30 minutes at room temperature. […]

In test [3] the test system is hepatic stellate cells (HSCs). The test can be described thus: Hepatic stellate cell activation: α-SMA immunofluorescence of liver, HF-fed mice. The conditions noted are these: HF diet mice 4 months, vs HF-vehicle.
Text: as §2
Combined oil red O and Immunofluorescence. Staining. Fresh mouse liver samples were embedded in optimal cutting temperature (OCT) medium and immediately frozen to −70 centigrade. Cryosections were then fixed in 4% formaldehyde for 1 hr at room temp. Slides were then rinsed three times in deionized water (dH2O) for 30 s, followed by treatment with 0.5% Triton X-100 in PBS for 5 min. Sections were then washed three times with PBS for 5 min. Samples were with incubated 2% bovine serum albumin (BSA) for 30 min at room temperature to block for unspecific antibody binding. Following blocking, sections were washed three times in PBS and incubated with mouse monoclonal antibody against α-SMA (1:500) (Dako, Inc) for 24 h at 4° C. After 24 h sections were washed three times in PB and incubated with Alexa-Flour-488 anti-mouse secondary anti-body (1:500) (Invitrogen, Inc) for 30 min at room temperature. Sections were then washed three times in PBS and incubated with working strength oil-red O solution for 30 minutes at room temperature. Sections were then rinsed for 30 minutes under running tap water and cover-slipped with Vectashield hard mount plus DAPI (Vector Labs, Inc).

The subject of test [4] is α-SMA, SREBP1c, MCP-1, TNF-α mRNA. The test can be described thus: Semi-quantitative PCR of liver, HF-fed mice. The conditions noted are these: HF diet mice 4 months.
Text: as §2
as §1, with “PCR (Liver).” for “PCR.”

Consider `CCCCOCCOc1nc(-c2ccc(C(=O)O)c(F)c2)sc1C` [AC261066], for which the “pancreatic RARβ2 mRNA level” value in test [1] is “increased”. For the same molecule, in test [2], the “renal lipid accumulation (H and E)” value is “diminished; also recorded: markedly decreased”; the “renal lipid accumulation (oil red O)” value is reported as “marked diminished; also recorded: comparably less”. For the same molecule, the “activation of hepatic stellate cells (α-SMA positive staining in liver)” value (shortened to “activation of hepatic stellate cells”) in test [3] was “diminished; also recorded: prevent; also recorded: decreased intensity and regions of α-SMA positive staining”. Also, in test [3] (listed as AC261011), the “activation of hepatic stellate cells” value is on record as “decreased”. In addition, in test [4], the “hepatic mRNA level of MCP-1” value was “decreases; also recorded: significantly diminish” and the “hepatic mRNA level of TNF-α” value was “decreases”. Moreover, the “hepatic mRNA level of alpha-SMA” value in test [4] (vs HF-vehicle) is “decreased”.
Consider `O=C(O)c1ccc(-c2ccc3cc(O)c(C45CC6CC(CC(C6)C4)C5)cc3c2)cc1` [CD1530], for which the “renal lipid accumulation (H and E)” value in test [2] is “no decrease”. In test [3], the “activation of hepatic stellate cells” value is given as “no evidence decreased”. Further, in test [4], the “hepatic mRNA level of MCP-1” value was “markedly elevated” and the “hepatic mRNA level of TNF-α” value is recorded as “markedly elevated”. The “hepatic mRNA level of SREBP1-c” value in test [4] (vs control diet) is “markedly higher”.
